Data: patent publication EP0450065A1, “ANTIVIRAL AGENT” (priority 1988, dated 1990)
Where two headings read alike, the source gives them in different places.

Tests used:
[1] = tested on: vero cells; conditions: control ratio on propagation of vero cells, 72hr
Description: Samples of the control group contained 0.1 ml of a culture solution (an Eagle's MEM culture medium containing 10% fetal bovine serum).
The test was conducted by using three culture tubes per group, culturing the cells in the tubes at 37°C for three days, and taking count of live cells by the dye-exclusion method.

[2] = tested on: herpes simplex virus type 1 (KOS strain); test: 50% Tissue culture infective dose (TCID50), Read-Munch method, negative logarithm of virus dilution; assay type: cell-based; design: key to Cytopathic effect [CPE] (5days) TCID50 / Cytopathic effect [CPE] (3days) TCID50: TCID50 as negative log of maximum virus dilution ratio; key to Cytopathic effect [CPE] (5days) △TCID50 / Cytopathic effect [CPE] (3days) △TCID50: difference from control TCID50, in negative log of virus dilution; conditions: for Cytopathic effect [CPE] (3days) TCID50 / Cytopathic effect [CPE] (5days) TCID50 / Cytopathic effect [CPE] (3days) △TCID50 / Cytopathic effect [CPE] (5days) △TCID50: HSV-1 (KOS), Example 7; for Cytopathic effect [CPE] (3days) △TCID50 / Cytopathic effect [CPE] (5days) △TCID50: difference from control
Description: The amount of virus infecting 50% of tissues (TCID₅₀) was determined by the Read-Munch method and expressed in negative logarithm of the maximum radio of dilution of virus. The difference of the amount thus determined from the amount found in the control (omitting the treatment with a chemical) was reported as ΔTCID₅₀. A sample whose ΔCPE's found on the last day of observation and on each of the days spent for the observation exceeded 1.0 was evaluated as effective.
Antiviral activity of Compound A and Compound B against herpes simplex virus type 1 (KOS strain) The test was carried out by following the procedure of Example 3.

[3] = tested on: herpes simplex virus type 1 (HF strain); test: Control of CPE (cytopathic effect) manifestation in vero cells; assay type: cell-based; design: key to Cytopathic effect [CPE] (3days) Average / Cytopathic effect [CPE] (5days) Average / Cytopathic effect [CPE] (6days) Average: CPE score: 0 none, 0.5 minute spots, 1 = 25%, 2 = 50%, 3 = ≥75% cells; key to Cytopathic effect [CPE] (3days) △CPE / Cytopathic effect [CPE] (5days) △CPE / Cytopathic effect [CPE] (3days) ΔCPE / Cytopathic effect [CPE] (6days) ΔCPE: ΔCPE = difference of average CPE score (0–3 scale) from control; conditions: for Cytopathic effect [CPE] (3days) △CPE / Cytopathic effect [CPE] (5days) △CPE / Cytopathic effect [CPE] (3days) ΔCPE / Cytopathic effect [CPE] (6days) ΔCPE: difference from control
Description: In vitro antiviral activity of Compound A against herpes simplex virus type 1 (HF strain) Compound A was tested for antiviral effect by the following two methods.
Vero cells cultured and grown in a monolayer on microplates to test for cytopathic effect due to viral infection, with solutions of Compound A diluted to varying ratios and solutions of virus diluted to varying ratios added severally thereto in a volume of 0.1 ml, were cultured under the conditions of 5% CO₂ and 37°C and were examined for CPE manifestation under a microscope. The observation was continued for five to six days.
The degree of CPE brought about by viral infection was rated on the five-point scale, wherein 3 stands for CPE observed on not less than 75% of cultured cells, 2 for CPE observed on 50% of cultured cells, 1 for CPE observed on 25% of cultured cells, 0.5 for occurrence of one to two extremely minute DPE spots, and 0 for perfect absence of recognizable CPE. The CPE scores obtained at the four holes in each microplate were averaged and the difference of the average from the average obtained in the control (omitting the treatment with a chemical) was reported as ΔCPE.
In vitro antiviral effect of Compound A against herpes simplex virus type 1 (HF strain) The test was carried out by following the procedure of Example 3.

[4] = tested on: vero cells; conditions: african green monkey
Description: Compound A and Compound B were severally dissolved in distilled water in a concentration of 5 mg/ml, to prepare master solutions. Each of the master solutions was suitably diluted with an Eagle's MEM culture medium containing 10% fetal bovine serum. A 0.2-ml portion of the resultant dilution product was placed on vero cells cultured in advance on a microplate and grown in a monolayer, cultured further thereon at 37°C for three to five days. Samples taken severally after three days'and five days'culture were placed under a microscope and tested for cytopathogenic effect brought about by a chemical agent.

[5] = biological target: thymidine kinase [TK(v)] (Human herpesvirus 1, UniProt P0DTH5); conditions: viral versus cellular thymidine kinase; cited from earlier work
[6] = 10 μg/ml, HSV-1 (HF), Example 3
[7] = 20 μg/ml, HSV-1 (HF), Example 3
[8] = 50 μg/ml, HSV-1 (HF), Example 3
[9] = 100 μg/ml, HSV-1 (HF strain), Example 5
[10] = 100 μg/ml, HSV-1 (HF), Example 3
[11] = 200 μg/ml, HSV-1 (HF strain), Example 5

Sequence of thymidine kinase [TK(v)] (P0DTH5 whole entry): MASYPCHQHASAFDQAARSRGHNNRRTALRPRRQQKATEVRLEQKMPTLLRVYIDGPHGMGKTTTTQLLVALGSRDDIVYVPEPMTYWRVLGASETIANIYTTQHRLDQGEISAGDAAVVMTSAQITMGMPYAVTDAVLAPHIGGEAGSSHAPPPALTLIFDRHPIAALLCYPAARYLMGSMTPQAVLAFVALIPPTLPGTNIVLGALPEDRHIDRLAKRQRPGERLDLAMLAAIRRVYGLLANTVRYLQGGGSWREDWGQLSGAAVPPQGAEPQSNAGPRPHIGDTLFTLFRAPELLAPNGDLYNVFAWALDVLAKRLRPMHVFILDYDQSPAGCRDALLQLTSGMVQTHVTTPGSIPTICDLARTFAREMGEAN

Molecule: K₅BW₁₂O₄₀.15H₂O [Compound A]
- Ratio (%) ([1]; 100 μg/ml): absolutely no effect
- Ratio (%) ([1]; 200 μg/ml): absolutely no effect
- Cytopathic effect [CPE] (3days) TCID50 ([2]; 100 μg/ml): 3.5
- Cytopathic effect [CPE] (5days) TCID50 ([2]; 100 μg/ml): 3.5
- Cytopathic effect [CPE] (3days) △TCID50 ([2]; 100 μg/ml): 2.0
- Cytopathic effect [CPE] (5days) △TCID50 ([2]; 100 μg/ml): 2.5
- Cytopathic effect [CPE] (3days) TCID50 ([2]; 200 μg/ml): 3.5
- Cytopathic effect [CPE] (5days) TCID50 ([2]; 200 μg/ml): 3.5
- Cytopathic effect [CPE] (3days) △TCID50 ([2]; 200 μg/ml): 2.0
- Cytopathic effect [CPE] (5days) △TCID50 ([2]; 200 μg/ml): 2.5
- Cytopathic effect [CPE] (3days) Average ([3]; 5 μg/ml, HSV-1 (HF), Example 3): 1.25
- Cytopathic effect [CPE] (5days) Average ([3]; 5 μg/ml, HSV-1 (HF), Example 3): 1.75
- Cytopathic effect [CPE] (3days) △CPE ([3]; 5 μg/ml, HSV-1 (HF), Example 3): 0.25
- Cytopathic effect [CPE] (5days) △CPE ([3]; 5 μg/ml, HSV-1 (HF), Example 3): 0
- Cytopathic effect [CPE] (3days) Average [3, 6]: 1.25
- Cytopathic effect [CPE] (5days) Average [3, 6]: 1.25
- Cytopathic effect [CPE] (3days) △CPE [3, 6]: 0.25
- Cytopathic effect [CPE] (5days) △CPE [3, 6]: 0.5
- Cytopathic effect [CPE] (3days) Average [3, 7]: 1.25
- Cytopathic effect [CPE] (5days) Average [3, 7]: 1.5
- Cytopathic effect [CPE] (3days) △CPE [3, 7]: 0.25
- Cytopathic effect [CPE] (5days) △CPE [3, 7]: 0.25
- Cytopathic effect [CPE] (3days) Average [3, 8]: 1.5
- Cytopathic effect [CPE] (5days) Average [3, 8]: 2.0
- Cytopathic effect [CPE] (3days) △CPE [3, 8]: 0
- Cytopathic effect [CPE] (5days) △CPE [3, 8]: 0.25
- Cytopathic effect [CPE] (3days) Average [3, 9]: 0.125
- Cytopathic effect [CPE] (6days) Average [3, 9]: 0.5
- Cytopathic effect [CPE] (3days) ΔCPE [3, 9]: 2.625
- Cytopathic effect [CPE] (6days) ΔCPE [3, 9]: 2.5
- Cytopathic effect [CPE] (3days) Average [3, 10]: 0.75
- Cytopathic effect [CPE] (5days) Average [3, 10]: 1.0
- Cytopathic effect [CPE] (3days) △CPE [3, 10]: 0.375
- Cytopathic effect [CPE] (5days) △CPE [3, 10]: 0.75
- Cytopathic effect [CPE] (3days) Average [3, 11]: 0
- Cytopathic effect [CPE] (6days) Average [3, 11]: 0
- Cytopathic effect [CPE] (3days) ΔCPE [3, 11]: 2.75
- Cytopathic effect [CPE] (6days) ΔCPE [3, 11]: 3.0
- maximum nontoxic doses (MNTD) [4]: > 200 µg/mL
- Cellular toxity (3 days) Maximum nontoxic does ([4]; 72 h): >200 µg/mL
- Cellular toxity (5 days) Maximum nontoxic does ([4]; 120 h): >200 µg/mL

Molecule: Nc1nc2c(ncn2COCCO)c(=O)[nH]1 [ACV, acyclovir, reference compound]
- affinity for TK(v) as for TK(c) [5]: more than 200 times
- Cytopathic effect [CPE] (3days) TCID50 ([2]; 100 μg/ml): 3.5
- Cytopathic effect [CPE] (5days) TCID50 ([2]; 100 μg/ml): 3.5
- log reduction at 100 µg/mL ([2]; Human alphaherpesvirus 1, 72 h, read-out: Cytopathic effect [CPE] (3days) △TCID50): 2
- log reduction at 100 µg/mL ([2]; Human alphaherpesvirus 1, 120 h, read-out: Cytopathic effect [CPE] (5days) △TCID50): 2.5
- Cytopathic effect [CPE] (3days) Average [3, 9]: 0.875
- Cytopathic effect [CPE] (6days) Average [3, 9]: 1.0
- Cytopathic effect [CPE] (3days) ΔCPE [3, 9]: 1.875
- Cytopathic effect [CPE] (6days) ΔCPE [3, 9]: 2.0
- Cytopathic effect [CPE] (3days) Average [3, 10]: 0
- Cytopathic effect [CPE] (5days) Average [3, 10]: 0
- Cytopathic effect [CPE] (3days) △CPE [3, 10]: 1.5
- Cytopathic effect [CPE] (5days) △CPE [3, 10]: 1.75
